# Measured values taken from EP2386565A2, “Compounds and methods to inhibit or augment an inflammatory response” (Cambridge Enterprise Ltd., priority 1999, dated 2000).
# Positions of bridges follow the written chain, without caps; N, C: chain ends. Non-standard residues stand in square brackets, D forms with d. Residues, ends and D or L forms follow the SMILES beside them. No end group written: not given here.
# How the values were obtained:
# [1] = system: gp120; settings: ns = not significant; >100 = ED50 not determined
# Description: Binding assays. Cells (either Jurkat T-cells or THP-1 cells) were grown in RPMI 1640 medium supplemented with 10% fetal calf serum, 2 mM glutamine, 20 µM β-mercaptoethanol, 100 U/ml penicillin and 100 µg/ml streptomycin and maintained between 2 × 10^5 and 1 × 10^6 cells/ml. Prior to performing a binding assay, cells were spun out (100 × g; 4 minutes) and washed 3 times in ice-cold PBS. A volume of cell suspension in PBS containing 10^6 cells (for Jurkat cells) or 4 × 10^5 cells (for THP-1 cells) was pipetted into each well of a V-bottom 96-well plate (Gibco BRL) and spun out (100 x g; 4 minutes). Triplicate wells were then resuspended in 100 µl binding medium (PBS pH 7.2 containing 0.1% fatty acid-free bovine serum albumin (BSA)) containing labeled peptide in the presence or absence of various concentrations of unlabeled peptide. The plate was then incubated on ice for 90 minutes. Cells were washed 3 times with 380 µl of ice-cold PBS, spinning out the cells each time (100 × g; 4 minutes), and resuspended in 100 µl binding medium containing streptavidin-peroxidase (Amersham International) at 1:1000 dilution. Cells were incubated for a further 15 minutes on ice to allow labeling of any bound biotinylated peptide, then washed 4 times as above. Cells were then incubated with 200 µl TMB substrate (K-Blue, Bionostics) for 20 minutes at room temperature, and the reaction stopped by addition of 50 µl 2 M HCl. The plate was spun (3,000 × g; 3 minutes) and 200 µl of the colored product was transferred to an empty 96-well ELISA plate and the absorbance at 450 nm determined. For each assay, the absorbance of a blank reaction (no peptide added) was subtracted from all readings before further analysis.
# Binding experiments with labeled peptide 2 were performed with 10 nM labeled peptide in each reaction.
# [2] = system: HIV; type: cell-based; settings: ns = not significant
# [3] = system: chemokine-induced THP-1 migration; assay: THP-1 trans-well migration assay, several chemokines together (averages, selectivity, pan-chemokine statements); type: cell-based, human; settings: for effect on chemokine-induced THP-1 migration (in words): MCP-1, MIP1α, IL-8 and SDF1α
# Description: To determine whether an agent inhibits a chemokine-induced activity, such as macrophage recruitment, varying amounts of the agent are mixed with cells in the presence of a known chemoattractant. […] Chemokine (such as MCP-1, MIP1α, IL8 or SDF-1α), at a concentration known to cause significant migration of THP-1 cells in the trans-well migration assay, is placed in the lower compartment (Figure 1). Cells are then incubated at 37°C for a period sufficient to allow migration, e.g., 4 hours. After incubation, the cells are gently removed from the top of the filter with a pipette, 20 µl of 20 mM EDTA in simple PBS is added into each top well, and incubated for 20 minutes at 4°C. The filter is carefully flushed with media using a gentle flow, and removed. […] The media is carefully aspirated from each well, and the converted dye is solubilized by 20 µl of DMSO.
# Chemotaxis was induced in a 96-well disposable chemotaxis chamber fitted with a 5 µM polycarbonate filter (PVP free, ChemoTX, Neuroprobe Inc., Cabin John). […] The framed filter was aligned with the holes in the corner of the filter frame and placed over the wells.
# Peptides were dissolved in Milli Q water and then serially diluted in culture medium. In most cases, the serially diluted peptides were added to the upper compartment of the chemotaxis chamber. The chamber was incubated at 37°C in a humidified atmosphere of 5% CO2 for 4 hours.
# After incubation, the cells were gently removed from the top of the filter with a pipette, 20 µl of 20 mM EDTA in PBS was added into each top well, and the mixture was incubated for 20 minutes at 4°C. The filter was then carefully flushed with media using a gentle flow, and removed. […] The curve was based on a two-fold dilution series of THP-1 cells (top standard 100,000 cells in 29 µl). […] The media was carefully aspirated from each well, and the converted dye was solubilized by 20 µl of DMSO.
# Representative chemokines included […] ("CC"), MIP-1α and RANTES, and two alpha-chemokines ("CXC"), IL-8 and SDF-1α. Additionally, to determine the specificity ofpeptide 3(1-12)[MCP-1]
# The number of pluses is a qualitative indicating of the activity of each peptide in each assay.
# [4] = system: B cells; type: cell-based
# [5] = system: LPS-induced serum TNF-α; assay: Endotoxemia model (LPS i.p.); type: in vivo, mice
# Description: A mouse endotoxemia model is used to screen agents of the invention for in vivo functional anti-inflammatory activity in a rapid manner. Female CD-1 mice are injected i.p. (ventral abdomen) with 583 µg LPS. mRNA and protein levels of TNF-α, IFN-γ, IL-4 and MCP-1 and other markers of the inflammatory response are then determined. Thirty minutes prior to LPS administration, the animals were administered one of three different doses of CRD-Leu4Ile11Cys13peptide 3(3-12)[MCP-1] as an intravenous loading dose and a subcutaneous bolus dose (on dorsum). PBS treated animals with and without LPS administration were positive and negative controls. Two hours later, animals were euthanized and serum collected. Serum was separated from the cell pellet and frozen until ELISA analysis of cytokine levels. Lung and liver samples were collected for mRNA analyses and histopathology. […] Serum levels and mRNA levels of IL-4, IFN-γ and MCP-1 are also determined.
# Each animal received a pretreatment (200 ul) by sub-cutaneous injection into the scruff at the back of the neck. All pre-treatment agents were administered at 1 mg per animal (approximately 40-50 mg/kg). After 30-45 minutes, animals in groups 2 through 6 received 750 µg bacterial lipopolysaccharide (LPS) in 300 µl PBS by intraperitoneal injection. Animals in group 1 received PBS vehicle alone.
# After 3 hours (2 hours post-LPS), all animals were sacrificed by terminal anaesthesia followed by cardiac puncture. Approximately 1 ml of blood was withdrawn and serum was prepared. Blood was allowed to clot at room temperature for approximately 2 hours, then the clot was spun out and the serum aliquoted and stored at -20°C until tested. Serum from each animal was assayed in duplicate for TNF-α using the Quantikine M kit (R&D Systems) calibrated by interpolation of the standard curve.
molecule,measurement,setting,value
CSYRRITSSKSPKEAVC,gp120 ED-50,[1],>100 µM
same,% virus inhibition,[2],ns
CC[C@@H](C)[C@H]1NC(=O)[C@@H](CCC(N)=O)NC(=O)[C@H](N)CSSC[C@H](C(N)=O)NC(=O)[C@@H](CC(C)C)NC(=O)[C@@H](CC(=O)O)NC(=O)[C@H]2CCCN2C(=O)[C@@H](CCCCN)NC(=O)[C@@H](CCC(N)=O)NC(=O)[C@@H](CCCCN)NC(=O)[C@@H](Cc2c[nH]c3ccccc23)NC1=O (H-[dC][dQ][dI][dW][dK][dQ][dK][dP][dD][dL][dC]-NH2; disulfide 1-11),effect on chemokine-induced THP-1 migration (in words),[3],very similar ED50s
same,Average ED50,[3]; average inhibitory ED50 for THP-1 migration induced by each of the chemokines,100 nM
same,proliferation of B cells to tetanus toxoid (in words),[4],no effect
same,serum MCP-1 and liver MCP-1 RNA after LPS (in words),"[5]; mouse, in vivo",no modulation
same,serum TNF-α after LPS (in words),"[5]; mouse, in vivo",dose-dependent inhibition
same,serum TNF-α after LPS (in words),"[5]; mouse, in vivo, listed as CRD-Leu4Ile11Cys13peptide 3(3-12)[MCP-1]",dose dependent decrease
same,half-maximal dose for inhibition of LPS-stimulated TNF-α,[5]; s.c.,approximately 100 µg per animal
=cvaekpsksstirrysc= ([dC][dV][dA][dE][dK][dP][dS][dK][dS][dS][dT][dI][dR][dR][dY][dS][dC]; bridge 1-17 (inferred); not fully specified; printed as =cvaekpsksstirrysc=),gp120 ED-50 (µM),[1],ns
same,% virus inhibition,[2],ns
CC[C@H](C)[C@H](NC(=O)[C@H](C)NC(=O)[C@H](CC(=O)O)NC(=O)[C@@H]1CCCN1C(=O)[C@H](CCC(N)=O)NC(=O)[C@H](C)N)C(=O)N[C@@H](CC(N)=O)C(=O)N[C@@H](C)C(=O)N1CCC[C@H]1C(=O)N[C@H](C(=O)N[C@H](C(=O)N[C@@H](CS)C(=O)N[C@@H](CS)C(=O)O)[C@@H](C)O)C(C)C [Peptide 1] (H-AQPDAINAPVTCC-OH; N-terminus and C-terminus assumed),% inhibition at 100 µM of migration induced by any of the chemokines tested,"[3]; 100 µM, CC and CXC chemokines",≤ 20%
same,effect on chemokine-induced THP-1 migration (in words),[3],no significant effect
